Here are results for four compounds from patent US9156840B2, “D2 antagonists, methods of synthesis and methods of use” (ALTOS THERAPEUTICS, LLC, priority 2010, dated 2015).

Structures are written as SMILES. Structures can show the parent of a compound that is named as a salt.

T1 sequence (P14416 whole entry): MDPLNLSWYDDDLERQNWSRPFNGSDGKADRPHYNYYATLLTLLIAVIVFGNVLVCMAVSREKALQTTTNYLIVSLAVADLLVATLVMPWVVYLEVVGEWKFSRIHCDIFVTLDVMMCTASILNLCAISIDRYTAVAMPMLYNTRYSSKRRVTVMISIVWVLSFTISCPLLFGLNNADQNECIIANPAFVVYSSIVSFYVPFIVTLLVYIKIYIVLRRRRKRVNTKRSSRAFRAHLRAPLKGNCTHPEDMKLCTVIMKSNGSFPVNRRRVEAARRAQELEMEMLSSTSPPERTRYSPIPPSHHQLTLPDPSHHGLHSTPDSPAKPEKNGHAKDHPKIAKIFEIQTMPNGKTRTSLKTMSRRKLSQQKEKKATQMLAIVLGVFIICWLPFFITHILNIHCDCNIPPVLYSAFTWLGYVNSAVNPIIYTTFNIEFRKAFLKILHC

This test addresses T1, human D2 receptor (Homo sapiens, UniProt P14416).
T1 construct: expressed in transfected cells; cDNA from Origene clones TC308892 and SC123573
Nature of the test: D2 receptor radioligand binding assay (membranes of HEK-293 cells expressing human D2 receptor). Conditions: radioligand displacement, HEK293 membranes, 37° C. for 120 minutes; read-out: Affinity Score (IC50 values for D2 on a scale of 1 through 5). Summed up: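 Membranes from HEK-293 cells stably expressing human D2S or D2L, 10 μg protein per well. Compounds incubated with radioligand (KD 0.09 nM) in Tris buffer pH 7.4 with 0.025% BSA, 120 minutes at 37° C. Filtration and scintillation counting; Ki by Cheng–Prusoff.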
With `O=C(CCCN1CCC2(CC1)C(=O)N([C@H](C(=O)O)c1ccccc1)CN2c1ccccc1)c1ccccc1` [Compound 168, (S)-2-(4-oxo-8-(4-oxo-4-phenylbutyl)-1-phenyl-1,3,8-triazaspiro[4.5]decan-3-yl)-2-phenylacetic acid], the IC50 is less than 10 nM. Regarding `O=C(O)c1cccc(CN2CN(c3ccc(F)cc3)C3(CCN(CCCn4c(=O)n(C5CC5)c5ccccc54)CC3)C2=O)c1` [Compound 156, 3-((8-(3-(3-cyclopropyl-2-oxo-2,3-dihydro-1H-benzo[d]imidazol-1-yl)propyl)-1-(4-fluorophenyl)-4-oxo-1,3,8-triazaspiro[4.5]decan-3-yl)methyl)benzoic acid], the concentration for half-maximal inhibition (IC50) is less than 10 nM. With `CC1(C)C(=O)N(CCCN2CCC3(CC2)C(=O)N(Cc2ccccc2C(=O)O)CN3c2ccccc2)c2ccccc21` [Compound 137, 2-((8-(3-(3,3-Dimethyl-2-oxoindolin-1-yl)propyl)-4-oxo-1-phenyl-1,3,8-triazaspiro[4.5]decan-3-yl)methyl)benzoic acid], the IC50 was less than 10 nM. The figure for `O=C(O)c1ccc(N2CN(c3ccccc3)C3(CCN(CCCC(=O)c4ccccc4)CC3)C2=O)cc1` [Compound 182, 4-(4-Cho-8-(4-oxo-4-phenylbutyl)-1-phenyl-1,3,8-triazaspiro[4.5]decan-3-yl)benzoic acid, hydrochloride] is less than 10 nM.
